Measurements taken from ChEMBL document CHEMBL1135808, “A new type of mixed anhydride and its applications to the synthesis of 7-substituted 8-chloro-5,5-dioxoimidazo[1,2-b][1,4,2]benzodithiazines with in vitro antitumor activity” (2002).

Columns and labels:
MDA-MB-231 [1] = experiment: In vitro growth inhibition against breast cancer MDA-MB-231/ATCC cell line was reported.; type: functional; details: Homo sapiens
786-0 = experiment: In vitro total growth inhibition against renal cancer […] cell lines was reported.; type: functional; details: Homo sapiens, read-out: Log TGI (converted)
NCI-H322M [2] = experiment: In vitro growth inhibition against non-small-cell lung cancer […] cell line was reported.; type: functional; details: Homo sapiens
SNB-75 = experiment: In vitro total growth inhibition against CNS cancer SNB-75 cell lines was reported.; type: functional; details: Homo sapiens, read-out: Log TGI (converted)
NCI-H226 [3] = experiment: In vitro growth inhibition against non-small-cell lung cancer NCI-H226 cell line was reported.; type: functional; details: Homo sapiens
DU-145 [4] = experiment: In vitro growth inhibition against prostate cancer […] cell line was reported.; type: functional; details: Homo sapiens
OVCAR-3 [5] = experiment: In vitro growth inhibition against ovarian cancer OVCAR-3 cell line was reported.; type: functional; details: Homo sapiens
OVCAR-4 = experiment: In vitro growth inhibition against ovarian cancer OVCAR-4 cell line was reported.; type: functional; details: Homo sapiens
M14 = experiment: Log of molar concentration leading to 50% cell death against melanoma M14 cell line was reported; type: functional; details: Homo sapiens, read-out: Log LC50 (the source's name) (converted)
U-251 = experiment: In vitro growth inhibition against CNS cancer U251 cell line was reported.; type: functional; details: Homo sapiens
RPMI-8226 [6] = experiment: In vitro growth inhibition against leukemia […] cell line was reported.; type: functional; details: Homo sapiens
NCI-H46 = experiment: In vitro total growth inhibition against non-small-cell lung cancer […] cell lines was reported.; type: functional; details: Homo sapiens, read-out: Log TGI (converted)
HL-60 [7] = experiment: Log of molar concentration leading to 50% cell death against leukemia HL-60(TB) cell line was reported; type: functional; details: Homo sapiens, read-out: Log LC50 (the source's name) (converted)
SNB-19 = experiment: In vitro total growth inhibition against CNS cancer SNB-19 cell lines was reported.; type: functional; details: Homo sapiens, read-out: Log TGI (converted)
HOP-62 = experiment: Log of molar concentration leading to 50% cell death against non-small-cell lung cancer HOP-62 cell line was reported; type: functional; details: Homo sapiens, read-out: Log LC50 (the source's name) (converted)
T47D [8] = experiment: In vitro growth inhibition against breast cancer […] cell line was reported.; type: functional; details: Homo sapiens
CCRF-CEM [9] = experiment: In vitro total growth inhibition against leukemia CCRF cell lines was reported.; type: functional; details: Homo sapiens, read-out: Log TGI (converted)
SW-620 [10] = experiment: In vitro total growth inhibition against colon cancer SW-620 cell lines was reported.; type: functional; details: Homo sapiens, read-out: Log TGI (converted)
IGROV-1 = experiment: In vitro total growth inhibition against ovarian cancer IGROV1 cell lines was reported.; type: functional; details: Homo sapiens, read-out: Log TGI (converted)
RXF 393 = experiment: In vitro total growth inhibition against renal cancer RXF 393 cell lines was reported.; type: functional; details: Homo sapiens, read-out: Log TGI (converted)
UACC-62 [11] = experiment: Log of molar concentration leading to 50% cell death against melanoma UACC-62 cell line was reported; type: functional; details: Homo sapiens, read-out: Log LC50 (the source's name) (converted)
NCI-H522 [12] = experiment: In vitro growth inhibition against non-small-cell lung cancer […] cell line was reported.; type: functional; details: Homo sapiens
SK-OV-3 = experiment: In vitro growth inhibition against ovarian cancer SK-OV-3 cell line was reported.; type: functional; details: Homo sapiens
SK-MEL-28 [13] = experiment: In vitro total growth inhibition against melanoma SK-MEL-28 cell lines was reported.; type: functional; details: Homo sapiens, read-out: Log TGI (converted)
OVCAR-5 = experiment: In vitro growth inhibition against ovarian cancer OVCAR-5 cell line was reported.; type: functional; details: Homo sapiens
DU-145 [14] = experiment: In vitro total growth inhibition against prostate cancer […] cell lines was reported.; type: functional; details: Homo sapiens, read-out: Log TGI (converted)
A549 = experiment: In vitro growth inhibition against non-small-cell lung cancer A 549/ATCC cell line was reported.; type: functional; details: Homo sapiens
MDA-MB-231 [15] = experiment: In vitro total growth inhibition against breast cancer MDA-MB-231/ATCC cell lines was reported.; type: functional; details: Homo sapiens, read-out: Log TGI (converted)
SK-MEL-28 [16] = experiment: Log of molar concentration leading to 50% cell death against melanoma SK-MEL-28 cell line was reported; type: functional; details: Homo sapiens, read-out: Log LC50 (the source's name) (converted)
RPMI-8226 [17] = experiment: Log of molar concentration leading to 50% cell death against leukemia […] cell line was reported; type: functional; details: Homo sapiens, read-out: Log LC50 (the source's name) (converted)
NCI-H226 [18] = experiment: In vitro total growth inhibition against non-small-cell lung cancer NCI-H226 cell lines was reported.; type: functional; details: Homo sapiens, read-out: Log TGI (converted)
NCI-H522 [19] = experiment: In vitro total growth inhibition against non-small-cell lung cancer NCI-522 cell lines was reported.; type: functional; details: Homo sapiens, read-out: Log TGI (converted)
Tumor Cell line = experiment: In vitro total growth inhibition for 50 cell lines was reported as log of molar concentration; type: functional, Homo sapiens
OVCAR-3 [20] = experiment: Log of molar concentration leading to 50% cell death against ovarian cancer OVCAR-3 cell line was reported; type: functional; details: Homo sapiens, read-out: Log LC50 (the source's name) (converted)
KM12 [21] = experiment: In vitro total growth inhibition against colon cancer KM12 cell lines was reported.; type: functional; details: Homo sapiens, read-out: Log TGI (converted)
MDA-N = experiment: In vitro total growth inhibition against breast cancer MDA-N cell lines was reported.; type: functional; details: Homo sapiens, read-out: Log TGI (converted)
ACHN = experiment: In vitro total growth inhibition against renal cancer ACHN cell lines was reported.; type: functional; details: Homo sapiens, read-out: Log TGI (converted)
PC-3 [22] = experiment: In vitro growth inhibition against prostate cancer PC-3 cell line was reported.; type: functional; details: Homo sapiens
KM12 [23] = experiment: In vitro growth inhibition against colon cancer KM12 cell line was reported.; type: functional; details: Homo sapiens
OVCAR-8 [24] = experiment: In vitro total growth inhibition against ovarian cancer OVCAR-8 cell lines was reported.; type: functional; details: Homo sapiens, read-out: Log TGI (converted)
SR = experiment: In vitro growth inhibition against leukemia SR cell line was reported.; type: functional; details: Homo sapiens
T47D [25] = experiment: In vitro total growth inhibition against breast cancer […] cell lines was reported.; type: functional; details: Homo sapiens, read-out: Log TGI (converted)
CCRF-CEM [26] = experiment: In vitro growth inhibition against leukemia CCRF-CEM cell line was reported.; type: functional; details: Homo sapiens
TK-10 = experiment: Log of molar concentration leading to 50% cell death against renal cancer TK-10 cell line was reported; type: functional; details: Homo sapiens, read-out: Log LC50 (the source's name) (converted)
MDA-MB-231 [27] = experiment: Log of molar concentration leading to 50% cell death against breast cancer MDA-MB-231/ATCC cell line was reported; type: functional; details: Homo sapiens, read-out: Log LC50 (the source's name) (converted)
HCC 2998 [28] = experiment: Log of molar concentration leading to 50% cell death against colon cancer HCC2998 cell line was reported; type: functional; details: Homo sapiens, read-out: Log LC50 (the source's name) (converted)
BT-549 = experiment: In vitro total growth inhibition against breast cancer BT 549 cell line was reported.; type: functional; details: Homo sapiens, read-out: Log TGI (converted)
SF-295 = experiment: Log of molar concentration leading to 50% cell death against CNS cancer SF-295 cell line was reported; type: functional; details: Homo sapiens, read-out: Log LC50 (the source's name) (converted)
HL-60 [29] = experiment: In vitro total growth inhibition against leukemia HL-60(TB) cell lines was reported.; type: functional; details: Homo sapiens, read-out: Log TGI (converted)
MOLT-4 = experiment: In vitro growth inhibition against leukemia MOLT-4 cell line was reported.; type: functional; details: Homo sapiens
OVCAR-8 [30] = experiment: In vitro growth inhibition against ovarian cancer OVCAR-8 cell line was reported.; type: functional; details: Homo sapiens
PC-3 [31] = experiment: In vitro total growth inhibition against prostate cancer PC-3 cell lines was reported.; type: functional; details: Homo sapiens, read-out: Log TGI (converted)
NCI-H322M [32] = experiment: In vitro total growth inhibition against non-small-cell lung cancer NCI-H322M cell lines was reported.; type: functional; details: Homo sapiens, read-out: Log TGI (converted)
COLO 205 [33] = experiment: Log of molar concentration leading to 50% cell death against colon cancer COLO 205 cell line was reported; type: functional; details: Homo sapiens, read-out: Log LC50 (the source's name) (converted)
SF-539 = experiment: Log of molar concentration leading to 50% cell death against CNS cancer SF-539 cell line was reported; type: functional; details: Homo sapiens, read-out: Log LC50 (the source's name) (converted)
HT-29 = experiment: In vitro growth inhibition against colon cancer HT-29 cell line was reported.; type: functional; details: Homo sapiens
HCC 2998 [34] = experiment: In vitro total growth inhibition against colon cancer HCC2998 cell lines was reported.; type: functional; details: Homo sapiens, read-out: Log TGI (converted)
COLO 205 [35] = experiment: In vitro total growth inhibition against colon cancer COLO 205 cell lines was reported.; type: functional; details: Homo sapiens, read-out: Log TGI (converted)
K562 = experiment: In vitro growth inhibition against leukemia K-562 cell line was reported.; type: functional; details: Homo sapiens
SW-620 [36] = experiment: In vitro growth inhibition against colon cancer SW620 cell line was reported.; type: functional; details: Homo sapiens
UACC-62 [37] = experiment: In vitro total growth inhibition against melanoma UACC-62 cell lines was reported.; type: functional; details: Homo sapiens, read-out: Log TGI (converted)

For `O=C(Nc1cccc2nsnc12)c1cc2c(cc1Cl)Sc1nccn1S2(=O)=O`, the GI50 (MDA-MB-231 [1]) was 6.03 µM, the TGI (786-0) was 30.2 µM and the GI50 (NCI-H322M [2]) was 1.78 µM. For the same compound, the TGI (SNB-75) was 26.9 µM, the GI50 (NCI-H226 [3]) was 19.1 µM and the GI50 (DU-145 [4]) was 1.74 µM. It also gave a GI50 (OVCAR-3 [5]) of 1.78 µM, a GI50 (OVCAR-4) of 2.75 µM and a CC50 (M14) of 69.2 µM. It also gave a GI50 (U-251) of 4.57 µM, a GI50 (RPMI-8226 [6]) of 2.09 µM and a TGI (NCI-H46) of 4.27 µM. The CC50 (HL-60 [7]) was 7.41 µM, the TGI (SNB-19) was 24.5 µM and the CC50 (HOP-62) was 8.71 µM. The GI50 (T47D [8]) was 1.7 µM, the TGI (CCRF-CEM [9]) was 13.5 µM and the TGI (SW-620 [10]) was 46.8 µM. The TGI (IGROV-1) was 23.4 µM, the TGI (RXF 393) was 28.8 µM and the CC50 (UACC-62 [11]) was 41.7 µM. The GI50 (NCI-H522 [12]) was 5.37 µM, the GI50 (SK-OV-3) was 45.7 µM and the TGI (SK-MEL-28 [13]) was 6.76 µM. For the same compound, the GI50 (OVCAR-5) was 29.5 µM, the TGI (DU-145 [14]) was 3.24 µM and the GI50 (A549) was 12.6 µM. For the same compound, the TGI (MDA-MB-231 [15]) was 24.5 µM, the CC50 (SK-MEL-28 [16]) was 46.8 µM and the CC50 (RPMI-8226 [17]) was 7.94 µM. The TGI (NCI-H226 [18]) was 33.1 µM, the TGI (NCI-H522 [19]) was 22.4 µM and the “Log GTI” value (Tumor Cell line) was -4.31. The CC50 (OVCAR-3 [20]) was 6.61 µM, the TGI (KM12 [21]) was 3.89 µM and the TGI (MDA-N) was 27.5 µM. It also gave a TGI (ACHN) of 36.3 µM, a GI50 (PC-3 [22]) of 1.91 µM and a GI50 (KM12 [23]) of 2.04 µM. For the same compound, the TGI (OVCAR-8 [24]) was 7.08 µM, the GI50 (SR) was 2 µM and the TGI (T47D [25]) was 5.75 µM. For the same compound, the GI50 (CCRF-CEM [26]) was 3.24 µM, the CC50 (TK-10) was 50.1 µM and the CC50 (MDA-MB-231 [27]) was 53.7 µM. The CC50 (HCC 2998 [28]) was 55 µM, the TGI (BT-549) was 32.4 µM and the CC50 (SF-295) was 55 µM. For the same compound, the TGI (HL-60 [29]) was 3.72 µM, the GI50 (MOLT-4) was 2.75 µM and the GI50 (OVCAR-8 [30]) was 2.34 µM. It also gave a TGI (PC-3 [31]) of 3.55 µM, a TGI (NCI-H322M [32]) of 3.24 µM and a CC50 (COLO 205 [33]) of 56.2 µM. For the same compound, the CC50 (SF-539) was 15.5 µM, the GI50 (HT-29) was 2.24 µM and the TGI (HCC 2998 [34]) was 11.7 µM. It also gave a TGI (COLO 205 [35]) of 30.9 µM, a GI50 (K562) of 4.07 µM and a GI50 (SW-620 [36]) of 12 µM. The TGI (UACC-62 [37]) was 17.8 µM.
